Like-named read-outs stand apart in the source and are kept apart here.
Experiments:
HCV replicon 1A = assay: Cell-based HCV Replicon Assay A, replicon 1A
Summary of the method: (§1)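 HCV replicon RNA levels are measured by multiplexed real-time RT-PCR, with cyclophilin as internal control, after 3 days of compound exposure. Compounds are tested in 10 serial dilutions starting between 333.3 nM and 1.667 nM, with 5% FBS in the medium.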

HCV replicon 1AY93H = assay: Cell-based HCV Replicon Assay A, replicon 1AY93H
Summary of the method: as §1

HCV replicon 2B = assay: Cell-based HCV Replicon Assay A, replicon 2B
Summary of the method: as §1

HCV replicon 1AQ30D = assay: Cell-based HCV Replicon Assay B, replicon 1AQ30D
Procedure: (§2) In an alternate assay (“Replicon Assay B”), 1000 cells were seeded per well in a 384-well collagen coated black plate from Greiner bio-one (Cat #781946) in 5% FBS. Inhibitors of this invention were added at 24 h post-seeding, and the plates were incubated for 3 days. Cells were subsequently lysed with Qiagen lysis buffer (Cat #1062731) to extract the RNA. HCV replicon RNA level was measured by real-time PCR using the RNA-to-CT kit from Applied Biosystem (Cat #4392656) and genotype-specific primers and probes. The amplicon was located within NS5B. The sequence of the PCR primers are as follows: 5B.2F, ATGGACAGGCGCCCTGA (SEQ. ID NO. 1); 5B.2R, […] (SEQ. ID NO. 2); the probe sequence was FAM-labeled CACGCCATGCGCTGCGG (SEQ. ID NO. 3). To detect genotype 1A the primer 1A F, TGCGGAACCGGTGAGTACA and 1A R, […] were used; the probe sequence was FAM-[…].
(§3) The real-time RT-PCR reactions were run on ABI PRISM 7900HT or Viia7 Sequence Detection System using the following program: 48° C. for 30 minutes, 95° C. for 10 minutes, 40 cycles of 95° C. for 15 sec, 60° C. for 1 minutes. The 50% effective concentration (EC50) was the drug concentration necessary to achieve an increase in the cycle threshold (CT) of 1 over the projected baseline CT.
(§4) Data was obtained for various compounds of the present invention using the methods described in the Example above, and is presented in the table immediately below. Data for replicons 1A, 1AY93H and 2B were obtained using Replicon Assay A and data for replicons 1AQ30D and 1B were obtained using Replicon Assay B.

HCV replicon 1B = assay: Cell-based HCV Replicon Assay B, replicon 1B
Procedure: as §2, §3, §4

[1] = Hepatitis C virus, read-out: 1A Y93H IC50 (nM), replicon 1AY93H
[2] = Hepatitis C virus, read-out: 2B IC50 (nM), replicon 2B
[3] = Hepatitis C virus, read-out: 1A Q30D IC50 (nM), replicon 1AQ30D
[4] = read-out: 1A Y93H IC50, replicon 1AY93H
[5] = read-out: 1A Q30D IC50, replicon 1AQ30D

Structure (SMILES) | IC50 (HCV replicon 1A; Hepatitis C virus) [nM] | IC50 (HCV replicon 1AY93H; [1]) [nM] | IC50 (HCV replicon 2B; [2]) [nM] | IC50 (HCV replicon 1AQ30D; [3]) [nM] | IC50 (HCV replicon 1B; Hepatitis C virus) [nM] | IC50 (HCV replicon 1AY93H; [4]) [nM] | IC50 (HCV replicon 2B; read-out: 2B IC50, replicon 2B) [nM] | IC50 (HCV replicon 1B) [nM] | IC50 (HCV replicon 1AQ30D; [5]) [nM] | IC50 (HCV replicon 1A) [nM] | IC50 (HCV replicon 1AQ30D; replicon 1AQ30D, read-out: 1A Q30D IC50) [nM]
COC(=O)N[C@H](C(=O)N1CCC[C@H]1c1ncc(-c2cc(F)c3c(c2)OC(c2cnc(-c4ccccn4)s2)n2c-3cc3cc(-c4cnc([C@@H]5CCCN5C(=O)[C@@H](NC(=O)OC)C(C)C)[nH]4)ccc32)[nH]1)C(C)C (mixture of isomers) [Compound 407] | 0.0027 | 0.143 | 0.192 | 0.482 | 0.004 |  |  |  |  |  | 
COC(=O)N[C@H](C(=O)N1CCC[C@H]1c1ncc(-c2cc(F)c3c(c2)OC(c2cnc(C)s2)n2c-3cc3cc(-c4cnc([C@@H]5CCCN5C(=O)[C@@H](NC(=O)OC)C(C)C)[nH]4)ccc32)[nH]1)C(C)C (mixture of isomers) [Compound 416] | 0.0022 | 0.085 | 0.119 | 1.77 | 0.003 |  |  |  |  |  | 
COC(=O)N[C@H](C(=O)N1CCC[C@H]1c1ncc(-c2cc(F)c3c(c2)OC(c2cnc(C(C)(C)C)s2)n2c-3cc3cc(-c4cnc([C@@H]5CCCN5C(=O)[C@@H](NC(=O)OC)C(C)C)[nH]4)ccc32)[nH]1)C(C)C (mixture of isomers) [Compound 418] | 0.0023 | 0.0083 | 0.095 | 0.255 | 0.003 |  |  |  |  |  | 
COC(=O)N[C@H](C(=O)N1CCC[C@H]1c1ncc(-c2cc(F)c3c(c2)OC(c2cnc(-c4cccnc4)s2)n2c-3cc3cc(-c4cnc([C@@H]5CCCN5C(=O)[C@@H](NC(=O)OC)C(C)C)[nH]4)ccc32)[nH]1)C(C)C (mixture of isomers) [Compound 422] | 0.021 |  | 35.2 | 1.67 | 0.015 |  |  |  |  |  | 
COC(=O)N[C@H](C(=O)N1CCC[C@H]1c1ncc(-c2cc(F)c3c(c2)OC(c2cnc(-c4cnccn4)s2)n2c-3cc3cc(-c4cnc([C@@H]5CCCN5C(=O)[C@@H](NC(=O)OC)C(C)C)[nH]4)ccc32)[nH]1)C(C)C (mixture of isomers) [Compound 423] | 0.0053 | 0.0526 | 0.041 | 0.444 | 0.007 |  |  |  |  |  | 
COC(=O)N[C@H](C(=O)N1CCC[C@H]1c1ncc(-c2cc(F)c3c(c2)OC(c2cnc(C4(C)CCOCC4)s2)n2c-3cc3cc(-c4cnc([C@@H]5CCCN5C(=O)[C@@H](NC(=O)OC)C(C)C)[nH]4)ccc32)[nH]1)C(C)C (mixture of isomers) [Compound 456] |  | 0.021 | 0.316 | 0.559 | 0.0027 |  |  |  |  |  | 
COC(=O)N[C@H](C(=O)N1CCC[C@H]1c1ncc(-c2cc(F)c3c(c2)OC(c2cnc(C4CC4C)s2)n2c-3cc3cc(-c4cnc([C@@H]5CCCN5C(=O)[C@@H](NC(=O)OC)C(C)C)[nH]4)ccc32)[nH]1)C(C)C (mixture of isomers) [Compound 491] | 0.0029 | 0.01 | 0.013 | 0.3 | 0.0026 |  |  |  |  |  | 
CCC(CC)c1ncc(C2Oc3cc(-c4cnc([C@@H]5CCCN5C(=O)[C@@H](NC(=O)OC)C(C)C)[nH]4)cc(F)c3-c3cc4cc(-c5cnc([C@@H]6CCCN6C(=O)[C@@H](NC(=O)OC)C(C)C)[nH]5)ccc4n32)s1 (mixture of isomers) [Compound 524] | 0.003 | 0.008 | 0.105 | 0.183 | 0.002 |  |  |  |  |  | 
COCc1ncc(C2Oc3cc(-c4cnc([C@@H]5CCCN5C(=O)[C@@H](NC(=O)OC)C(C)C)[nH]4)cc(F)c3-c3cc4cc(-c5cnc([C@@H]6CCCN6C(=O)[C@@H](NC(=O)OC)C(C)C)[nH]5)ccc4n32)s1 (single isomer, unassigned) [Compound 18] |  |  |  | 0.072 |  | 0.0069 | 0.016 | 0.001 |  |  | 
COC(=O)N[C@H](C(=O)N1CCC[C@H]1c1ncc(-c2cc(F)c3c(c2)OC(c2cnc(C4CC4)s2)n2c-3c(F)c3cc(-c4cnc([C@@H]5CCCN5C(=O)[C@@H](NC(=O)OC)C(C)C)[nH]4)ccc32)[nH]1)C(C)C (single isomer, unassigned) [Compound 21] |  |  |  | 0.494 | 0.004 | 0.0177 | 0.012 |  |  |  | 
COC(=O)N[C@H](C(=O)N1CCC[C@H]1c1ncc(-c2cc(F)c3c(c2)OC(c2ncc(-c4ccc(C#N)cc4)s2)n2c-3cc3cc(-c4cnc([C@@H]5CCCN5C(=O)[C@@H](NC(=O)OC)C(C)C)[nH]4)ccc32)[nH]1)C(C)C (single isomer, unassigned) [Compound 44] |  |  |  |  |  | 0.103 | 0.054 | 0.002 | 0.778 |  | 
COC(=O)N[C@H](C(=O)N1CCC[C@H]1c1ncc(-c2cc(F)c3c(c2)OC(c2cnc(Oc4ccc(F)cc4)s2)n2c-3cc3cc(-c4cnc([C@@H]5CCCN5C(=O)[C@@H](NC(=O)OC)C(C)C)[nH]4)ccc32)[nH]1)C(C)C (single isomer, unassigned) [Compound 49] | 0.001 |  |  |  | 0.002 |  | 0.002 |  | 0.029 |  | 
COC(=O)N[C@H](C(=O)N1CCC[C@H]1c1ncc(-c2cc(F)c3c(c2)OC(c2cnc(Oc4ccc(F)cc4)s2)n2c-3cc3cc(-c4cnc([C@@H]5CCCN5C(=O)[C@@H](NC(=O)OC)C(C)C)[nH]4)ccc32)[nH]1)C(C)C (single isomer, unassigned) [Compound 50] |  |  |  |  |  | 0.119 | 0.158 | 0.001 | 1.22 |  | 
COC(=O)N[C@H](C(=O)N1CCC[C@H]1c1ncc(-c2cc(F)c3c(c2)OC(c2cnc(C(C)C)s2)n2c-3cc3cc(-c4cnc([C@@H]5CCCN5C(=O)[C@@H](NC(=O)OC)C(C)C)[nH]4)ccc32)[nH]1)C(C)C (single isomer, unassigned) [Compound 86] |  | 0.0063 |  | 0.187 | 0.002 |  | 0.028 |  |  |  | 
COC(=O)N[C@H](C(=O)N1CCC[C@H]1c1ncc(-c2cc(F)c3c(c2)OC(c2nc4c(s2)CCCC4)n2c-3cc3cc(-c4cnc([C@@H]5CCCN5C(=O)[C@@H](NC(=O)OC)C(C)C)[nH]4)ccc32)[nH]1)C(C)C (single isomer, unassigned) [Compound 88] |  |  |  |  |  |  |  |  | 0.415 | 0.0028 | 
CCCc1ncc(C2Oc3cc(-c4cnc([C@@H]5CCCN5C(=O)[C@@H](NC(=O)OC)C(C)C)[nH]4)cc(F)c3-c3cc4cc(-c5cnc([C@@H]6C[C@H]7C[C@H]7N6C(=O)C(NC(=O)OC)C6CCOC(C)(C)C6)[nH]5)ccc4n32)s1 (single isomer, unassigned) [Compound 105] |  |  |  |  |  | 0.0029 |  | 0.004 | 0.017 | 0.0022 | 
COC(=O)NC(C(=O)N1CCC[C@H]1c1ncc(-c2ccc3c(c2)cc2n3C(c3cnc(C4CCC4)s3)Oc3cc(-c4cnc([C@@H]5CCCN5C(=O)[C@@H](NC(=O)OC)C(C)C)[nH]4)cc(C)c3-2)[nH]1)C1C[C@@H](C)O[C@H](C)C1 (single isomer, unassigned) [Compound 220] | 0.004 | 0.01 |  | 0.046 | 0.005 |  |  |  |  |  | 
COC(=O)NC(C(=O)N1CCC[C@H]1c1ncc(-c2ccc3c(c2)cc2n3C(c3cnc(C4CC4)s3)Oc3cc(-c4cnc([C@@H]5CCCN5C(=O)[C@@H](NC(=O)OC)C(C)C)[nH]4)cc(F)c3-2)[nH]1)C1C[C@@H](C)O[C@H](C)C1 (single isomer, unassigned) [Compound 305] |  |  |  |  |  | 0.0031 |  | 0.004 | 0.015 | 0.003 | 
COC(=O)N[C@H](C(=O)N1CCC[C@H]1c1ncc(-c2cc(F)c3c(c2)OC(c2csc(C4CC4)n2)n2c-3cc3cc(-c4cnc([C@@H]5CCCN5C(=O)[C@@H](NC(=O)OC)C(C)C)[nH]4)ccc32)[nH]1)C(C)C (single isomer, unassigned) [Compound 433] |  |  |  | 1.6 |  | 0.06 | 0.3 | 0.001 |  |  | 
COC(=O)N[C@H](C(=O)N1CCC[C@H]1c1nc(-c2cc(F)c3c(c2)OC(c2cnc(C4CCCCC4)s2)n2c-3cc3cc(-c4cnc([C@@H]5CCCN5C(=O)[C@@H](NC(=O)OC)C(C)C)[nH]4)ccc32)c[nH]1)C(C)C (stereo partly shown) [Compound 415] | 0.0016 | 2.88 | 1.43 |  | 0.002 |  |  |  |  |  | 
COC(=O)N[C@H](C(=O)N1CCC[C@H]1c1ncc(-c2cc(F)c3c(c2)OC(c2cnc(C4CC4)s2)n2c-3cc3cc(-c4cnc([C@@H]5CC6(C)CC6N5C(=O)[C@@H](NC(=O)OC)C(C)C)[nH]4)ccc32)[nH]1)C(C)C (stereo partly shown) [Compound 517] | 0.0017 | 0.392 | 0.874 |  | 0.0033 |  |  |  |  |  | 
COC(=O)NC(C(=O)N1C(c2ncc(-c3cc(F)c4c(c3)OC(c3cnc(C5CC5)s3)n3c-4cc4cc(-c5cnc(C6CC7(C)CC7N6C(=O)C(NC(=O)OC)C(C)C)[nH]5)ccc43)[nH]2)CC2(C)CC12)C(C)C (stereo not shown) [Compound 533] |  |  |  |  |  |  |  | 0.0196 |  | 0.0262 | 2.52
